# Reference: ChEMBL document CHEMBL1201862, “PubChem BioAssay data set” (2004)
# The source made the active and inactive calls.
# Assays:
# Estrogen receptor = Estrogen receptor (Homo sapiens, UniProt P03372); test: ERα coactivator recruitment enhancers – biochemical, TR-FRET, ERα LBD, dose response (AID 737)
# Vero = test: mammalian cell viability reduction – secondary assay, cytotoxicity control for West Nile virus antiviral project, dose response (AID 1650); assay type: functional; settings: Chlorocebus sabaeus
# [1] = Trypanosoma cruzi growth suppression in host cells – NIH3T3 host cells, beta-gal luminescence, confirmation (AID 2044); assay type: functional, cell-based;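 note: intracellular parasites grown in NIH/3T3 mouse fibroblasts as host cells; luminescent beta-galactosidase reporter signal from transgenic T. cruzi replicating inside host cells; inhibitors lower the luminescence signal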
# [2] = NIH3T3 cell viability loss – ATP luminescence, mouse fibroblasts, counter-screen, dose response (AID 2010); assay type: functional, cell-based;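 note: cells exposed to compound for about 90 hours before reading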
# [3] = A Cell Based Secondary Assay To Explore Cytotoxicity of Compounds that Sensitize Mycobacterium Tuberculosis to Beta-Lactam Antibiotics.; assay type: functional
# [4] = molecular target: C-C chemokine receptor type 6 (Homo sapiens, UniProt P51684); test: antagonism of CCR6 beta-arrestin recruitment – cell-based, luminescent beta-arrestin readout, dose response (AID 504728); assay type: functional
# Sequence of C-C chemokine receptor type 6 (P51684 whole entry): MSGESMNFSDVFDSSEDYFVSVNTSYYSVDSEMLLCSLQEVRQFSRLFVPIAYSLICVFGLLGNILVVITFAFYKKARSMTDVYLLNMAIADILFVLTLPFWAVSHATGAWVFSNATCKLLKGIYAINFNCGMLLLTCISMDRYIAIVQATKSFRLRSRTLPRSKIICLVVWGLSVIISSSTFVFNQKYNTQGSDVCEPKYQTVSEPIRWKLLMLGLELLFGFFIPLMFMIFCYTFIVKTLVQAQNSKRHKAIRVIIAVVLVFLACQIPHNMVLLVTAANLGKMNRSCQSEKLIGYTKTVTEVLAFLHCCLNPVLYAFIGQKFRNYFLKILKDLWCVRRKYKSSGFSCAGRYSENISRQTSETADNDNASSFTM
# Beta-galactosidase = Beta-galactosidase (Escherichia coli, UniProt Q8VNN2); test: detection-enzyme interference by beta-gal modulators – biochemical, E. coli enzyme, set 3, artefact control for CCR6 antagonist project, dose response (AID 504712); assay type: functional
# Sequence of Beta-galactosidase (Q8VNN2 whole entry): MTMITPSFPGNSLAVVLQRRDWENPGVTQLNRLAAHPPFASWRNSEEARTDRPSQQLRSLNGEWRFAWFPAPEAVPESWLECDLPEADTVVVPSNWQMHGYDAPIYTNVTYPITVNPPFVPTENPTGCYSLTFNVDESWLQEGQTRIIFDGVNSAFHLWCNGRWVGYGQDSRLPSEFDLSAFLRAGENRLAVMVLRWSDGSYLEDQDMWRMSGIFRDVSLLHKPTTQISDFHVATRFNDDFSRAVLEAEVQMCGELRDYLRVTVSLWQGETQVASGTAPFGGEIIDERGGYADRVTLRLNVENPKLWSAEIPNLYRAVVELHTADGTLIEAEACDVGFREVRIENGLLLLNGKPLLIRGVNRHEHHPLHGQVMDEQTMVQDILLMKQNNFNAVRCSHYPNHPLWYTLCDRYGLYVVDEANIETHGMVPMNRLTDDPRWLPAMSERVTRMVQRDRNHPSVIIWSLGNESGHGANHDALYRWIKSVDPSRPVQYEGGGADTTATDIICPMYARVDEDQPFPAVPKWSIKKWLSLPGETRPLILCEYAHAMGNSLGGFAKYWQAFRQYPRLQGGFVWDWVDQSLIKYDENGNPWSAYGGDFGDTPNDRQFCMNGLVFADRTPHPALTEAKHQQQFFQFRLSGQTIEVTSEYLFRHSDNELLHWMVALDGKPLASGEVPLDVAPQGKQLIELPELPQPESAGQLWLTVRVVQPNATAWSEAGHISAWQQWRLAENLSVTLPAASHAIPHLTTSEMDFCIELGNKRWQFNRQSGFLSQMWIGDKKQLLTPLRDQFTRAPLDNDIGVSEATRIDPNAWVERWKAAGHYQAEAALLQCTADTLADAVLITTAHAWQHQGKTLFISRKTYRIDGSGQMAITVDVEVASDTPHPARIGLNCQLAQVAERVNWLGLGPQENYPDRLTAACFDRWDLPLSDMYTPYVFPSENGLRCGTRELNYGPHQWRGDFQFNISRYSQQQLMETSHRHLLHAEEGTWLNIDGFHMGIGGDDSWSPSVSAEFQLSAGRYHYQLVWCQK
# [5] = Luminescence-based cell-based high throughput dose response assay to identify activators of the DAF-12 from the parasite S. stercoralis (ssDAF-12).; assay type: functional
# [6] = molecular target: T1, Oxysterols receptor LXR-beta (Homo sapiens, UniProt P55055); test: LXR agonists, Gal4 luciferase reporter, dose response, counter-screen for ssDAF-12 agonist project, cell-based, luminescence, HEK293, S. stercoralis campaign (AID 720737); assay type: functional; settings: read-out: IC50 (the source's name)
# T1 sequence (P55055 whole entry): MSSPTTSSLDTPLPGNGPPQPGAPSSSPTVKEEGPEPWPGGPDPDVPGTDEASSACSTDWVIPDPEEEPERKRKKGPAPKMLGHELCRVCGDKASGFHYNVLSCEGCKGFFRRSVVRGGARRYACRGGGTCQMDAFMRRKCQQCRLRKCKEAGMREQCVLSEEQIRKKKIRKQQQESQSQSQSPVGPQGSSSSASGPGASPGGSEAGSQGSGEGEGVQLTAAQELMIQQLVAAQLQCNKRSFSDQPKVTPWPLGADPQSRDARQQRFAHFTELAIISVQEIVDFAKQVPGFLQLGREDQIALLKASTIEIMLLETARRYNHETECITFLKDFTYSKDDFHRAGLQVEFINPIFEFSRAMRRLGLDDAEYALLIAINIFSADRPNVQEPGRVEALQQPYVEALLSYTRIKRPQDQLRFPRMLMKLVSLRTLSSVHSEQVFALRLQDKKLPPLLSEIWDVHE
# Cytochrome P450 2D6 = Cytochrome P450 2D6 (Homo sapiens, UniProt P10635); test: qHTS Assay for Inhibitors and Substrates of Cytochrome P450 2D6. [Related pubchem assays: 410 ]; assay type: ADME; settings: read-out: Potency
# Sequence of Cytochrome P450 2D6 (P10635 whole entry): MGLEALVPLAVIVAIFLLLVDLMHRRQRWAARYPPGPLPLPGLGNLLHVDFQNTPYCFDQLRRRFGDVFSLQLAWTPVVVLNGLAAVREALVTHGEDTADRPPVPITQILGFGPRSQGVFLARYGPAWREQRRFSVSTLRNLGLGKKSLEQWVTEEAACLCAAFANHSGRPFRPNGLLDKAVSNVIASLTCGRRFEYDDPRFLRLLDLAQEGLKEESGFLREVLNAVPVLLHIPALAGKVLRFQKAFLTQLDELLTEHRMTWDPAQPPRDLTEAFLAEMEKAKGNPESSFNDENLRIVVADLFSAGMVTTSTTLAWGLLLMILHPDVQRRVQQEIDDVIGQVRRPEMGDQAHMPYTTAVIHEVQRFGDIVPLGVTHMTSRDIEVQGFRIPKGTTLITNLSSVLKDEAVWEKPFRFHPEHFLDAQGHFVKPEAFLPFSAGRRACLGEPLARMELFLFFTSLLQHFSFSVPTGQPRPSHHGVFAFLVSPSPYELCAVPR
# [7] = molecular target: T2, Alkaline phosphatase, tissue-nonspecific isozyme (Homo sapiens, UniProt P05186)
# T2 sequence (P05186 whole entry): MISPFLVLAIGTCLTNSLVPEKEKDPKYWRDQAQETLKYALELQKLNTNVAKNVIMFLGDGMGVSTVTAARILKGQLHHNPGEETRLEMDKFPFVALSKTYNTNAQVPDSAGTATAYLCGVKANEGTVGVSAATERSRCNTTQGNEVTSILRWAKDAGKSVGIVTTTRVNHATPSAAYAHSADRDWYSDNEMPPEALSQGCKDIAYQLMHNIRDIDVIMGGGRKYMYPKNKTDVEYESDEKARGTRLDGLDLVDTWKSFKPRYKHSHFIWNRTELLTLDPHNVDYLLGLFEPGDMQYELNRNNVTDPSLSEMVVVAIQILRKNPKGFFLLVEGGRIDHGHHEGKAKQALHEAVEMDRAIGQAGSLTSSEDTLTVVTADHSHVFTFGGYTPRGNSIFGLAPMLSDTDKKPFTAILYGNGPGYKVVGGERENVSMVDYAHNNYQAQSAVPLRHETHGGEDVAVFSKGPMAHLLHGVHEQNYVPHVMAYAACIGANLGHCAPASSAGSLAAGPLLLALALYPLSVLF
# [8] = viability of PTEN-deleted HCT116 cells – cell-based, HCT116 PTEN knockout, dose response (AID 1047); assay type: functional;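 note: HCT116 colon tumor cells with PTEN knocked out; cells exposed to compound for 60 hours before readout; potency for loss of cell viability measured by luminescence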
# [9] = viability of HCT116 lacking mutant beta-catenin – cell-based, human colon tumor, dose response (AID 1045); assay type: functional;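 note: HCT116 colon tumor cells with beta catenin knocked out; cells exposed to compound for 60 hours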
# [10] = viability loss in THP-1 monocytes – THP-1 cells, cytotoxicity control for Vif-APOBEC3G degradation inhibitor project, dose response (AID 1117359); assay type: functional; settings: THP-1
# [11] = viability of uninfected HEp-2 cells – cell-based, HTS, cytotoxicity control for RSV inhibitor project, dose response (AID 2410); assay type: functional; settings: human respiratory syncytial virus
# [12] = molecular target: Melanin-concentrating hormone receptor 1 (Homo sapiens, UniProt Q99705); test: Fluorescence-based counterscreen for antagonists of the G-protein coupled receptor 7 (GPR7): cell-based high throughput dose response assay to identify antagonists of the melanin-concentrating hormone receptor 1 (MCHR1).; assay type: functional
# Sequence of Melanin-concentrating hormone receptor 1 (Q99705 whole entry): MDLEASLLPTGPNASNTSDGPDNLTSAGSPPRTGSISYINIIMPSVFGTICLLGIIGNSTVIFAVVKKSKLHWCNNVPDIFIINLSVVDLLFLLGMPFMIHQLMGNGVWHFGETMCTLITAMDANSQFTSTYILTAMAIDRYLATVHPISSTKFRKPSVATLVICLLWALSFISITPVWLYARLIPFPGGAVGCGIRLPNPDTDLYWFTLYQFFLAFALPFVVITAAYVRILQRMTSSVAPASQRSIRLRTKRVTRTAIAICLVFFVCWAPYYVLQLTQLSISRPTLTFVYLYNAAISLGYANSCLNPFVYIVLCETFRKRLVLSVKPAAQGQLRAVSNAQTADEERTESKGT
# [13] = M. tuberculosis H37Rv growth inhibitors, H37Rv strain (AID 1626); assay type: functional
# [14] = molecular target: T3, Corticotropin-releasing factor receptor 2/Corticotropin-releasing factor-binding protein (Homo sapiens, UniProt P24387+Q13324); test: activators of CRF receptor 2 with binding protein – uHTS hits, confirmation (AID 602473); assay type: functional; settings: read-out: EC50_Mean
# T3 sequence (Q13324 whole entry): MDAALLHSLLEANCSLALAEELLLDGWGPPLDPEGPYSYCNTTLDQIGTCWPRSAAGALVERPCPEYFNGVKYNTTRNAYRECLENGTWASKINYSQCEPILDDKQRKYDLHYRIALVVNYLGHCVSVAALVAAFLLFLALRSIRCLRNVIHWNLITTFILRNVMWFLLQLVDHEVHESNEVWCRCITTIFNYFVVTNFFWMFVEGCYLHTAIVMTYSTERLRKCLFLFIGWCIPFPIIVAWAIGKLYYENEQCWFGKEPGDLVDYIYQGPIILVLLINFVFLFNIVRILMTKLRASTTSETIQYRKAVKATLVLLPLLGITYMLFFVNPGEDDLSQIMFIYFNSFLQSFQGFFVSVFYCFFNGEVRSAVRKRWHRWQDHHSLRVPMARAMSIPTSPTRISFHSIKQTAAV
# T3 sequence (P24387 whole entry): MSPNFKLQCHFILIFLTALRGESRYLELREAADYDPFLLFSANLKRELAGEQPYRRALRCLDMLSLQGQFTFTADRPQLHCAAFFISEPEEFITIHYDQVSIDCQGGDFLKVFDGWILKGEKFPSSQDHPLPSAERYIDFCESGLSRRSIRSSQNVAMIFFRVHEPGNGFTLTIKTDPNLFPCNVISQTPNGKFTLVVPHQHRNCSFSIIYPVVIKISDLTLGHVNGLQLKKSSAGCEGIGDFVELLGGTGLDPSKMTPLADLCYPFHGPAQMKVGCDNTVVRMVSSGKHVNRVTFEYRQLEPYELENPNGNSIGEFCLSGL
# Cytochrome P450 3A4 = Cytochrome P450 3A4 (Homo sapiens, UniProt P08684); settings: Potency;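 note: confirmatory qHTS run detecting inhibitors and substrates of CYP3A4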
# Sequence of Cytochrome P450 3A4 (P08684 whole entry): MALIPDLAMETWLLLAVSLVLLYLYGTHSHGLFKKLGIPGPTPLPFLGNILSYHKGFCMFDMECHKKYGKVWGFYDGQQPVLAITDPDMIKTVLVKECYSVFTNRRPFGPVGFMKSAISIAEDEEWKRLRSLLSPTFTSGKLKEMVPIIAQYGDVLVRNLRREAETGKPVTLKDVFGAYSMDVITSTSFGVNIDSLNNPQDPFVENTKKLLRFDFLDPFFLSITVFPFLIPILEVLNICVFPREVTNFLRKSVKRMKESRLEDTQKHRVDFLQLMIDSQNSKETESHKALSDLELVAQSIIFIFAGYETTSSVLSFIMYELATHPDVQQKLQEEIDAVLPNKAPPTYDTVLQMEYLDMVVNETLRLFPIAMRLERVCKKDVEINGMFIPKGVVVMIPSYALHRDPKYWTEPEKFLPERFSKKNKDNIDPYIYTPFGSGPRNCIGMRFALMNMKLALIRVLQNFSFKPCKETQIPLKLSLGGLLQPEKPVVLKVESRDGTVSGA
# Leucine aminopeptidase = Leucine aminopeptidase (Plasmodium falciparum 3D7, UniProt Q8IL11); test: P. falciparum M17LAP inhibitors, primary screen, biochemical, fluorogenic H-Leu-NHMec substrate, 1536-well (AID 1619); assay type: functional
# Sequence of Leucine aminopeptidase (Q8IL11 whole entry): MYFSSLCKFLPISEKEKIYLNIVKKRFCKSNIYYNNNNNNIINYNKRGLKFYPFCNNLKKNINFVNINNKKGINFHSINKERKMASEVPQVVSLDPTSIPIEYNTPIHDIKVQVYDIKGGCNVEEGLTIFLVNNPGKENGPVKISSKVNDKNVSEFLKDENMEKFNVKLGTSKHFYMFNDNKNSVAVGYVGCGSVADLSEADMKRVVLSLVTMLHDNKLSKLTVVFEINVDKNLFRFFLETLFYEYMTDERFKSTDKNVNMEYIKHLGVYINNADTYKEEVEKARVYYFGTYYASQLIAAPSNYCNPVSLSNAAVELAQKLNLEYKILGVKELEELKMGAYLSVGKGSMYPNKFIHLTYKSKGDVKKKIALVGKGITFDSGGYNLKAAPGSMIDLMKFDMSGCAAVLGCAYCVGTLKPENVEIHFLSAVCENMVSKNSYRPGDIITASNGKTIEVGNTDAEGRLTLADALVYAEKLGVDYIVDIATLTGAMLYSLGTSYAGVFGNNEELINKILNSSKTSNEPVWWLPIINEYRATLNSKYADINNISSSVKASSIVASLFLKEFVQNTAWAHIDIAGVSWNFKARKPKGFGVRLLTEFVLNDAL
# [15] = system: Streptococcus sp. 'group A'; test: Streptococcus pyogenes SK(-)GAS viability under kanamycin – luminescence, BacTiterGlo, confirmation, counter-screen for streptokinase expression inhibitor project, dose response (AID 1900); assay type: functional, organism-based
# Streptokinase A = molecular target: T4, Streptokinase A (Streptococcus pyogenes serotype M1, UniProt P10520); test: viability-normalized secreted streptokinase activity reduction – plasminogen activation absorbance, OD405, dose response (AID 1914); assay type: functional, Streptococcus pyogenes M1 GAS;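 note: secreted streptokinase activity via plasminogen activation per viability signal from cell pellet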
# T4 sequence (P10520 whole entry): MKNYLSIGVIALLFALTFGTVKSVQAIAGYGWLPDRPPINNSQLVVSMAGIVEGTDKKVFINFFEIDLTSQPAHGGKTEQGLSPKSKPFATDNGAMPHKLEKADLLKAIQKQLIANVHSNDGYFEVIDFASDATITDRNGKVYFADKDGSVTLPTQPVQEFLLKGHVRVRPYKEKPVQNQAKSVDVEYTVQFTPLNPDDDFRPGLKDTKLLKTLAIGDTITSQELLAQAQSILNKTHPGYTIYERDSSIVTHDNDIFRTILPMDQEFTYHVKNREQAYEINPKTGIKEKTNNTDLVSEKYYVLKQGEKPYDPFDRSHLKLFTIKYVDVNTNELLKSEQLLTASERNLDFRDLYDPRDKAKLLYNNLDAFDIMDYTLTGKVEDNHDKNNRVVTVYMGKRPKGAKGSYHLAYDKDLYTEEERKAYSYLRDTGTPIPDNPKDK
# Streptococcus = test: GAS UMAA2166 growth inhibition – luminescence, BacTiterGlo, counter-screen for streptokinase expression inhibitor project, dose response (AID 1915); assay type: functional, organism-based;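 note: potency for reduction of bacterial viability or growth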
# X-box-binding protein 1 = X-box-binding protein 1 (Homo sapiens, UniProt P17861); assay type: functional, Cricetulus griseus;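 note: confirmatory dose-response counter-screen serving a CHOP assay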
# Sequence of X-box-binding protein 1 (P17861 whole entry): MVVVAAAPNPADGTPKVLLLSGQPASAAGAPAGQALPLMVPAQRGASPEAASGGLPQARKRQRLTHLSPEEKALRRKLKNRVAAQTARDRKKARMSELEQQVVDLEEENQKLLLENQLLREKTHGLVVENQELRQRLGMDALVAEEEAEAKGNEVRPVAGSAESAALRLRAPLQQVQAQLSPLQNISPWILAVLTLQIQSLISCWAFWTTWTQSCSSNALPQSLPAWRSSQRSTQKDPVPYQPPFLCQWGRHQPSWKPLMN
# [16] = molecular target: T5, Dual specificity protein phosphatase 6 (Rattus norvegicus, UniProt Q64346); test: inhibition of rat DUSP6 enzyme activity – biochemical, in vitro, primary screen (AID 425)
# T5 sequence (Q64346 whole entry): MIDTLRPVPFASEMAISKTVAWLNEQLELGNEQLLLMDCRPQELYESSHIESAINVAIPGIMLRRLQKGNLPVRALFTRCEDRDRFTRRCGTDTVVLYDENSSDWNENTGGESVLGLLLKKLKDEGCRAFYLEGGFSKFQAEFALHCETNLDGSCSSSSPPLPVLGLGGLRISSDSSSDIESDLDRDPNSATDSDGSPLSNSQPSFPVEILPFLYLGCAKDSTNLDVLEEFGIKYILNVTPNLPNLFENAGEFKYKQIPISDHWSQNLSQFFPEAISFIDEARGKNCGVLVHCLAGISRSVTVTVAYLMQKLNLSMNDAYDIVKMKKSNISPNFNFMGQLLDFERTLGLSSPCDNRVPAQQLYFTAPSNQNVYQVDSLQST
# [17] = molecular target: Serine/threonine-protein phosphatase PP1-alpha catalytic subunit (Homo sapiens, UniProt P62136); test: inhibition of protein phosphatase 1 activity – biochemical, fluorescence, dose response (AID 2403);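 note: phosphatase turnover of OMFP into fluorescent 3-O-methylfluorescein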
# [18] = molecular target: Serine/threonine-protein phosphatase (Homo sapiens, UniProt Q9BPW0); test: Counterscreen for inhibitors of PP1: fluorescence-based biochemical high throughput dose response assay to identify inhibitors of Protein Phosphatase 5 (PP5). [Related pubchem assays: 2034 (Summary (PP5 inhibitors)), 1987 (PP5 inhibitors in singlate), 2235 (PP1 inhibitors in singlate)]
# Sequence of Serine/threonine-protein phosphatase (Q9BPW0 whole entry): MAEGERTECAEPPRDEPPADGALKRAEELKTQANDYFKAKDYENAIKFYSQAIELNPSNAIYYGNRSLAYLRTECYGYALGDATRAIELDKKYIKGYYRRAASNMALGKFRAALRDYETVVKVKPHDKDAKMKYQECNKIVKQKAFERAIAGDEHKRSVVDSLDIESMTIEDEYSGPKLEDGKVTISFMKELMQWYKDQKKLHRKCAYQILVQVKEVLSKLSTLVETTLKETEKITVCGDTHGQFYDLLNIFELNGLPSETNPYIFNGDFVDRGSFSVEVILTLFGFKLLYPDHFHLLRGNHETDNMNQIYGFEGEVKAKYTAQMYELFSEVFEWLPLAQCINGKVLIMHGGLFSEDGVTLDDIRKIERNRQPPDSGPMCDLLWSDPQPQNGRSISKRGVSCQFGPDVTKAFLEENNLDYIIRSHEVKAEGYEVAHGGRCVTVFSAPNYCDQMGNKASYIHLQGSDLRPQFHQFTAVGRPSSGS
# [19] = Luminescence-based dose response cell-based high throughput screening assay for cytotoxic compounds using the IEC-6 intestinal epithelial cell line. [Related pubchem assays: 1858 (Summary AID.), 1825 (Counterscreen.), 1907 (Confirmation screen.)]; assay type: functional
# Sequence of Estrogen receptor (P03372 whole entry, the tested form may be a part): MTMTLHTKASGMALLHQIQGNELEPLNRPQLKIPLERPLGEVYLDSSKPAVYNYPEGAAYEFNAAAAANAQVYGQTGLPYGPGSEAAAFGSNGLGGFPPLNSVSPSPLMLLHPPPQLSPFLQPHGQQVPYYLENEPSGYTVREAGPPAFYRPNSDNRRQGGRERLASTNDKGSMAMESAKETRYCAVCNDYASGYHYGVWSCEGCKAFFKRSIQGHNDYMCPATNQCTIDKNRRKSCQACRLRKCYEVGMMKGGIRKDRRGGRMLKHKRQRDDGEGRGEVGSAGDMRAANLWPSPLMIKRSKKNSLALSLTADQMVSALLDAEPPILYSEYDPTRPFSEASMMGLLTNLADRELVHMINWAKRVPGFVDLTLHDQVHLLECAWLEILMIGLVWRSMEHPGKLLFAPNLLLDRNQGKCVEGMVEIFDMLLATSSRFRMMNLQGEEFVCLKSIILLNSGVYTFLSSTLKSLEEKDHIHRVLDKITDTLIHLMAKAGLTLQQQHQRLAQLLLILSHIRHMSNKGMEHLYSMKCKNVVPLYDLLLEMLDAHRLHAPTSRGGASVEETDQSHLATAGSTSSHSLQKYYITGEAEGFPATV
smiles,measurement,setting,value
COc1cccc(-n2nnnc2SCC(=O)Nc2ccc(C(C)=O)cc2)c1,EC50,Estrogen receptor,17.3 µM (active)
O=[N+]([O-])c1ccc(NC2CCN(Cc3ccccc3)CC2)c2ccncc12,CC50,Vero,> 100 µM (active)
same,EC50,[1],811 nM (active)
same,EC50,[2],> 60 µM (not active)
CCSc1nc2c(cnn2-c2ccc(C)cc2)c(=O)[nH]1,EC50,Estrogen receptor,14.4 µM (active)
Cc1cc(NC(=O)CSc2nc(C(C)C)nc3sc4c(c23)CCCC4)no1,CC50,[3],38 µM (active)
Cc1c(C(=O)Nc2nc3ccccc3[nH]2)oc2ccccc12,IC50,[4],552 nM (active)
same,IC50,Beta-galactosidase,> 66.6 µM (inactive)
same,IC50,[5],> 67.5 µM (inactive)
same,EC50,[6],> 67.5 µM (inactive)
Cc1ccc(C(OCC(O)CNC(C)c2ccccc2)c2ccccc2)cc1 (stereo unspecified),CC50,Vero,18.9 µM (active)
COc1ccc(NC(=O)/C=C\c2ccc(Cl)cc2)cc1,AC50,Cytochrome P450 2D6,25.1 µM (inconclusive)
Cn1c(=O)c2c(nc(N/N=C/c3cccs3)n2Cc2ccccc2)n(C)c1=O,EC50,[7],> 100 µM (not active)
same,EC50,[8],56.2 µM (active)
same,EC50,[9],84.2 µM (active)
CCC(C)N=C(S)NNC(=O)c1ccc(C(C)(C)C)cc1 (stereo unspecified),EC50,[7],79.2 µM (not active)
same,CC50,[10],> 40 µM (active)
Cc1nc2ccccc2nc(C)c1=NOCc1cccc(F)c1,CC50,[11],41.4 µM (active)
same,IC50,cells,35.9 µM (active)
C#CC(CO)N(CCN(Cc1ccccc1)C(C#C)CO)Cc1ccccc1 (stereo unspecified),IC50,[12],15 µM (not active)
Clc1ccc(-c2ccc(/C=N/c3ccc(N4CCOCC4)cc3)o2)c(Cl)c1,IC50,[13],> 100 µM (active)
same,EC50,[14],6.68 µM (active)
O=c1cc(-c2cccc(O)c2O)oc2ccccc12,AC50,Cytochrome P450 2D6,31.6 µM (inconclusive)
same,AC50,Cytochrome P450 3A4,20 µM (inconclusive)
N#Cc1ccsc1NC(=O)CSc1nnc[nH]1,IC50,Leucine aminopeptidase,10.7 µM (active)
Cc1ccc(NC(=O)c2ccc(C#CC3(O)CCCCC3)cc2)cc1C,EC50,[15],> 150 µM (not active)
same,EC50,Streptokinase A,7.36 µM (inconclusive)
same,EC50,Streptococcus,> 150 µM (not active)
same,Absolute IC50 (XBP1),X-box-binding protein 1,10 µM
CCOc1ccc2nc(Nc3nc4c(c(=O)[nH]3)CCC4)nc(C)c2c1,IC50,[16],36.8 µM (active)
Cc1nc2ccccc2nc1Nc1cccc(Cl)c1,CC50,[11],24.1 µM (active)
same,IC50,cells,11.7 µM (active)
Cc1ccc(C)c2sc(NC(=O)c3nc4ccccc4s3)nc12,IC50,[4],869 nM (active)
same,IC50,Beta-galactosidase,> 66.6 µM (inactive)
COc1ccc(CN2C(=O)Cc3c2nc(N)c2c(N)nc(N4CCCCC4)c(C#N)c32)cc1,IC50,[17],11.1 µM (not active)
same,IC50,[18],> 67 µM (not active)
COc1ccc(NC(C#N)c2ccc(OC)cc2)cc1 (stereo unspecified),IC50,[13],> 100 µM (active)
CCCOc1ccc(N2C(=O)CC(SC(=NCC)Nc3cccc(F)c3)C2=O)cc1 (stereo unspecified),Absolute IC50 (XBP1),X-box-binding protein 1,10 µM
CCc1ccccc1NC(=O)CSc1nnc[nH]1,IC50,Leucine aminopeptidase,34.4 µM (active)
C=C1[C@@H](C)[C@H]2[C@H](Cc3ccccc3)NC(=O)[C@]23OC(=O)/C=C/[C@H](O)CCC[C@@H](C)C/C=C/[C@H]3[C@@H]1O [CYTOCHALASIN B],IC50,[19],424 nM (active)
O=C1N=C(N/N=C/c2ccc3ncccc3c2)SC1Cc1ccc(SC(F)F)cc1 (stereo unspecified),CC50,[3],> 40 µM (active)
